Patent US20070117743A1, “New antitumoral compounds” (priority 2003, published 2007)
Where a SMILES comes first, the peptide text is derived from it. Bridges are numbered along the chain shown (N, C = ends). [ ]: non-standard residue; d: D form. The star is where a group is joined. d(aIle) = CC[C@H](C)[C@@H](N)C(=O)O; d(aThr) = C[C@@H](O)[C@@H](N)C(=O)O; Hexanoyl(5-Me) = CC(C)CCCC(=O)*; Orn = NCCC[C@H](N)C(=O)O; Dhb = C/C=C(\N)C(=O)O

Tests used:
Type in all cases: cell-based, human
SK-BR-3 = assay: SRB colorimetric assay of cell growth and viability, SK-BR-3; details: 48 hours exposure
LoVo = assay: SRB colorimetric assay of cell growth and viability, LoVo; details: 48 hours exposure; for CC50: read-out: LC50 LOVO
PANC-1 = assay: SRB colorimetric assay of cell growth and viability, PANC-1; details: 48 hours exposure; for CC50: read-out: LC50 PANC-1
K-562 = assay: SRB colorimetric assay of cell growth and viability, K-562; details: 48 hours exposure; for CC50: read-out: LC50 K-562
SK-MEL-28 = assay: SRB colorimetric assay of cell growth and viability, SK-MEL-28; details: 48 hours exposure; for CC50: read-out: LC50 MEL-28
LNCaP = assay: SRB colorimetric assay of cell growth and viability, LNCaP; details: 48 hours exposure; for GI50: read-out: GI50 LN-caP; for CC50: read-out: LC50 LN-caP
HT-29 = assay: SRB colorimetric assay of cell growth and viability, HT-29; details: 48 hours exposure; for GI50: read-out: GI50 HT-29; for CC50: read-out: LC50 HT-29
IGROV-ET = assay: SRB colorimetric assay of cell growth and viability, IGROV-ET; details: 48 hours exposure; for CC50: read-out: LC50 IGROV-ET
HeLa = assay: SRB colorimetric assay of cell growth and viability, HeLa; details: 48 hours exposure; for CC50: read-out: LC50 HELA
DU-145 = assay: SRB colorimetric assay of cell growth and viability, DU-145; details: 48 hours exposure
HeLa-APL = assay: SRB colorimetric assay of cell growth and viability, HeLa-APL; details: 48 hours exposure; for CC50: read-out: LC50 HELA-APL
A-549 = assay: SRB colorimetric assay of cell growth and viability, A-549; details: 48 hours exposure; for GI50: read-out: GI50 A-549; for CC50: read-out: LC50 A-549
IGROV-1 = assay: SRB colorimetric assay of cell growth and viability, IGROV-1; details: 48 hours exposure

## C/C=C1\NC(=O)[C@H](Cc2ccccc2)NC(=O)[C@@H](C(C)C)NC(=O)[C@@H]([C@@H](C)CC)NC(=O)[C@H](NC(=O)[C@H](NC(=O)[C@H](CCCN)NC(=O)[C@H]2CCCN2C(=O)[C@H](NC(=O)[C@@H](NC(=O)[C@@H](NC(=O)[C@H](NC(=O)c2ccc(C(F)(F)F)cc2)C(C)C)[C@@H](C)O)C(C)C)C(C)C)[C@@H](C)CC)[C@@H](C)OC(=O)[C@H](C(C)C)NC1=O [Compound 21, [p-CF3Bza^14]-KF]
SK-BR-3
  GI50: 0.111 µM
  LC50: 0.543 µM
  TGI SK-BR-3: 2.46E−07 Molar
LoVo
  GI50: 0.0917 µM
  TGI LOVO: 1.92E−07 Molar
  CC50: 0.404 µM
PANC-1
  GI50: 1.3 µM
  TGI PANC-1: 3.11E−06 Molar
  CC50: 6.5 µM
K-562
  GI50: 6.5 µM
  TGI K-562: 6.50E−06 Molar
  CC50: 6.5 µM
SK-MEL-28
  GI50: 0.897 µM
  TGI MEL-28: 1.85E−06 Molar
  CC50: 3.8 µM
LNCaP
  TGI LN-caP: 1.30E−06 Molar
  GI50: 0.339 µM
  CC50: 3.52 µM
HT-29
  TGI HT-29: 2.59E−07 Molar
  GI50: 0.114 µM
  CC50: 0.585 µM
IGROV-ET
  GI50: 0.169 µM
  TGI IGROV-ET: 7.61E−07 Molar
  CC50: 2.83 µM
HeLa
  GI50: 0.319 µM
  TGI HELA: 1.28E−06 Molar
  CC50: 3.91 µM
DU-145
  GI50: 0.241 µM
  LC50 (concentration causing 50% net cell kill): 3.28 µM
  TGI DU-145: 1.22E−06 Molar
HeLa-APL
  GI50: 0.504 µM
  TGI HELA-APL: 1.48E−06 Molar
  CC50: 3.67 µM
A-549
  TGI A-549: 4.06E−07 Molar
  GI50: 0.146 µM
  CC50: 1.68 µM
IGROV-1
  GI50: 0.177 µM
  LC50 (concentration causing 50% net cell killing): 3.45 µM
  TGI IGROV: 7.22E−07 Molar

## C/C=C1\NC(=O)[C@H](Cc2ccccc2)NC(=O)[C@@H](C(C)C)NC(=O)[C@@H]([C@@H](C)CC)NC(=O)[C@H](NC(=O)[C@H](NC(=O)[C@H](CCCN)NC(=O)[C@H]2CCCN2C(=O)[C@H](NC(=O)[C@@H](NC(=O)[C@@H](NC(=O)[C@H](NC(=O)CCCCCCCCCCCCCCCCCCC)C(C)C)[C@@H](C)O)C(C)C)C(C)C)[C@@H](C)CC)[C@@H](C)OC(=O)[C@H](C(C)C)NC1=O [Compound 13, [Icos^14]-KF]
SK-BR-3
  GI50: 0.861 µM
  LC50: 3.99 µM
  TGI SK-BR-3: 1.86E−06 Molar
LoVo
  GI50: 0.903 µM
  TGI LOVO: 1.79E−06 Molar
  CC50: 3.58 µM
PANC-1
  GI50: 2.02 µM
  TGI PANC-1: 5.48E−06 Molar
  CC50: 6.02 µM
K-562
  GI50: 1.23 µM
  TGI K-562: 2.42E−06 Molar
  CC50: 4.71 µM
SK-MEL-28
  GI50: 1.25 µM
  TGI MEL-28: 2.21E−06 Molar
  CC50: 3.93 µM
LNCaP
  TGI LN-caP: 2.39E−06 Molar
  GI50: 1.21 µM
  CC50: 4.73 µM
HT-29
  TGI HT-29: 2.32E−06 Molar
  GI50: 1.26 µM
  CC50: 4.28 µM
IGROV-ET
  GI50: 1.66 µM
  TGI IGROV-ET: 2.81E−06 Molar
  CC50: 4.79 µM
HeLa
  GI50: 1.4 µM
  TGI HELA: 2.71E−06 Molar
  CC50: 5.25 µM
DU-145
  GI50: 1.28 µM
  LC50 (concentration causing 50% net cell kill): 4.04 µM
  TGI DU-145: 2.28E−06 Molar
HeLa-APL
  GI50: 1.25 µM
  CC50: 3.98 µM
A-549
  TGI A-549: 2.13E−06 Molar
  GI50: 1.18 µM
  CC50: 3.82 µM
IGROV-1
  GI50: 1.36 µM
  LC50 (concentration causing 50% net cell killing): 4.68 µM
  TGI IGROV: 2.52E−06 Molar

## C/C=C1\NC(=O)[C@H](Cc2ccccc2)NC(=O)[C@@H](C(C)C)NC(=O)[C@@H]([C@@H](C)CC)NC(=O)[C@H](NC(=O)[C@H](NC(=O)[C@H](CCCN)NC(=O)[C@H]2CCCN2C(=O)[C@H](NC(=O)[C@H](CC(C)C)NC(=O)[C@@H](NC(=O)[C@H](NC(=O)CCCC(C)C)C(C)C)[C@@H](C)O)C(C)C)[C@@H](C)CC)[C@@H](C)OC(=O)[C@H](C(C)C)NC1=O [Compound 45, [Leu^11]-KF] ({Hexanoyl(5-Me)}-[dV]TL[dV][dP][Orn][d(aIle)][d(aThr)][d(aIle)][dV]F[Dhb]V; ester 8-C)
SK-BR-3
  GI50: 0.163 µM
  LC50: 1.68 µM
  TGI SK-BR-3: 4.10E−07 Molar
LoVo
  GI50: 0.113 µM
  TGI LOVO: 2.32E−07 Molar
  CC50: 0.476 µM
PANC-1
  GI50: 2.32 µM
  TGI PANC-1: 6.70E−06 Molar
  CC50: 6.7 µM
K-562
  GI50: 1.49 µM
  TGI K-562: 3.10E−06 Molar
  CC50: ≥ 6.4 µM
SK-MEL-28
  GI50: 1.03 µM
  TGI MEL-28: 2.05E−06 Molar
  CC50: 4.11 µM
LNCaP
  TGI LN-caP: 2.35E−06 Molar
  GI50: 1.02 µM
  CC50: 5.44 µM
HT-29
  TGI HT-29: 1.17E−06 Molar
  GI50: 0.316 µM
  CC50: 3.66 µM
IGROV-ET
  GI50: 0.421 µM
  TGI IGROV-ET: 1.30E−06 Molar
  CC50: 3.69 µM
HeLa
  GI50: 0.938 µM
  TGI HELA: 2.16E−06 Molar
  CC50: 4.98 µM
DU-145
  GI50: 0.731 µM
  LC50 (concentration causing 50% net cell kill): 3.54 µM
  TGI DU-145: 1.61E−06 Molar
HeLa-APL
  GI50: 0.912 µM
  TGI HELA-APL: 1.94E−06 Molar
  CC50: 4.13 µM
A-549
  TGI A-549: 1.90E−06 Molar
  GI50: 0.925 µM
  CC50: 3.93 µM
IGROV-1
  GI50: 0.332 µM
  LC50 (concentration causing 50% net cell killing): 4.02 µM
  TGI IGROV: 1.23E−06 Molar

## C/C=C1\NC(=O)[C@H](Cc2ccccc2)NC(=O)[C@@H](C(C)C)NC(=O)[C@@H]([C@@H](C)CC)NC(=O)[C@H](NC(=O)[C@H](NC(=O)[C@H](CCCN)NC(=O)[C@H]2CCCN2C(=O)[C@H](NC(=O)[C@@H]2CCCN2C(=O)[C@@H](NC(=O)[C@H](NC(=O)CCCC(C)C)C(C)C)[C@@H](C)O)C(C)C)[C@@H](C)CC)[C@@H](C)OC(=O)[C@H](C(C)C)NC1=O [Compound 47, [Pro^11]-KF] ({Hexanoyl(5-Me)}-[dV]TP[dV][dP][Orn][d(aIle)][d(aThr)][d(aIle)][dV]F[Dhb]V; ester 8-C)
SK-BR-3
  GI50: 6.78 µM
  LC50: 6.78 µM
  TGI SK-BR-3: 6.78E−06 Molar
LoVo
  GI50: 5.85 µM
  TGI LOVO: 6.78E−06 Molar
  CC50: 6.78 µM
PANC-1
  GI50: 5.63 µM
  TGI PANC-1: 6.78E−06 Molar
  CC50: 6.78 µM
K-562
  GI50: 6.78 µM
  TGI K-562: 6.78E−06 Molar
  CC50: 6.78 µM
SK-MEL-28
  GI50: 6.78 µM
  TGI MEL-28: 6.78E−06 Molar
  CC50: 6.78 µM
LNCaP
  TGI LN-caP: 6.78E−06 Molar
  GI50: 3.45 µM
  CC50: 6.78 µM
HT-29
  TGI HT-29: 6.78E−06 Molar
  GI50: 6.78 µM
  CC50: 6.78 µM
IGROV-ET
  GI50: 6.78 µM
  TGI IGROV-ET: 6.78E−06 Molar
  CC50: 6.78 µM
HeLa
  GI50: 6.78 µM
  TGI HELA: 6.78E−06 Molar
  CC50: 6.78 µM
DU-145
  GI50: 6.78 µM
  LC50 (concentration causing 50% net cell kill): 6.78 µM
  TGI DU-145: 6.78E−06 Molar
HeLa-APL
  GI50: 6.78 µM
  TGI HELA-APL: 6.78E−06 Molar
  CC50: 6.78 µM
A-549
  TGI A-549: 6.78E−06 Molar
  GI50: 6.78 µM
  CC50: 6.78 µM
IGROV-1
  GI50: 6.78 µM
  LC50 (concentration causing 50% net cell killing): 6.78 µM
  TGI IGROV: 6.78E−06 Molar
